{"source": "patent US11800869B2", "about": "“Use of 6-oxo-1,4,5,6-tetrahydropyridazine-3-carboxylic acid, 1-methyl 6-oxo-1,4,5,6-tetrahydropyridazine-3-carboxylic acid and 1-alkyl-6-oxo-1,4,5,6-tetrahydropyridazine-3-carboxylic acid for improving growth performance in plants” (Advanced Crop Chem LLP, priority 2020, dated 2023)", "type_in_all_cases": "in vivo", "key": {"Wheat seeds [1]": {"test_system": "Wheat seeds", "assay": "Wheat seed treatment, in vitro germination and early growth compared with Take Off (Example 11)", "details": "10 g per ton of seed; petri dishes, 20C; FIG. 6", "description": "Referring to FIG. 6, illustrated are three photographs 600 of an In vitro assessment of the effects on the germination and early stage growth of wheat following treatment of naked wheat seed with of 6-oxo-1,4,5,6 tetrahydropyridazine-3-carboxylic acid. Untreated 610, THP 620 and a commercial seed treatment, Take Off® 630. The seed shown in 620 was grown under natural daylight conditions at 20-22 degrees Centigrade. Wheat seeds were treated with 6-oxo-1,4,5,6 tetrahydropyridazine-3-carboxylic acid or a commercial seed treatment at labeled rates (Take Off ST) and allowed to germinate to examine and compare the effects of temperature on germination. Wheat seeds were treated with 6-oxo-1,4,5,6 tetrahydropyridazine-3-carboxylic acid or Take Off, a commercial biostimulant (that claims faster germination and emergence). The treated seeds received the treatment compounds at the rate of 10 g per ton of seed utilizing the same dosing methodology as Example 1. However in this case seeds were germinated on moistened absorbent paper towel discs in closed petri dishes. The seeds were incubated at 20C in darkness until germination commenced and then grown in natural diurnal conditions for a further 12 days."}, "field grown wheat": {"test_system": "field grown wheat", "assay": "Field grown wheat plots, foliar treatment, yield (Example 12)", "details": "foliar treatment at Zadocks GS 30", "description": "Field grown wheat plants (Var: AWC 13) were given foliar treatment at Zadoks GS 25-26 (FIG. 1) of 6-oxo-1,4,5,6 tetrahydropyridazine-3-carboxylic acid (THP) or 1-methyl 6-oxo-1,4,5,6 tetrahydropyridazine-3-carboxylic acid (MTHP) both at 100 g in 200 L water plus 0.25% Nouryon wetter. Plants were grown under standard UK wheat growing cultural practice (https://andb.org.uk/wheatgg). Yield was assessed at harvest.\nNine field grown wheat plots (20 m^2) were established. In each plot, the area was split into two and one half treated with 6-oxo-1,4,5,6 tetrahydropyridazine-3-carboxylic acid (THP) to assess for effects on yield. Plants were treated at Zadocks GS 30 as described in example 6 under standard cultural practices. The average yield response compared to the untreated plants across all sites was 0.596 tons per hectare."}, "[2]": {"test_system": "Winter wheat variety AWC 13", "assay": "Wheat seed treatment, field grown, root biomass (Example 14)", "details": "untreated 0.66", "description": "Wheat seeds were treated with 6-oxo-1,4,5,6 tetrahydropyridizine-3-carboxylic acid treated plants to examine the impact on shoot and root biomass for field grown plants. Winter wheat variety AWC 13 seeds were treated with 6-oxo-1,4,5,6-tetrahydropyridazine-3-carboxylic acid and field grown. The plants from seeds treated with 6-oxo-1,4,5,6 tetrahydropyridazine-3-carboxylic acid had larger root biomass (0.85 g dry weight/plant) compared with plants from untreated seeds (0.66 g dry weight/plant)."}, "Wheat seeds [3]": {"test_system": "Wheat seeds", "assay": "Wheat seed treatment, germination paper, shoot and root fresh weights (Example 9)", "details": "pH 5.7-5.8, germination paper 75-85° F; for Shoot fresh weight: Control 27.4; for Roots fresh weight: Control 29.1", "description": "Wheat seeds were treated with 6-oxo-1,4,5,6 tetrahydropyridazine-3-carboxylic acid and the shoot and root fresh weights as shown in Table 1. Shoot and root fresh weights at this stage are components of early seedling emergence which is important for early establishment of a vigorous and productive crop. Wheat seeds were treated with a solution of either 0.1 mM or 0.01 mM 6-oxo-1,4,5,6 tetrahydropyridazine-3-carboxylic acid in an aqueous solution at pH 5.7-5.8. The seeds were placed on moist germination paper and allowed to germinate at 75-85° F. The control seeds were imbibed in aqueous solution containing only the soft soap and glycerol."}, "[4]": {"test_system": "Wheat plants (Variety AWC 13)", "assay": "Foliar treatment of wheat, foliar and root dry biomass (Example 5)", "details": "foliar treatment at Zadoks GS 15-20, 30 days after application, mean of 10 plants", "excerpt": "Wheat plants (Variety AWC 13) were given a foliar treatment of 6-oxo-1,4,5,6-tetrahydropyridazine-3-carboxylic acid(THP) or 1-methyl 6-oxo-1,4,5,6 tetrahydropyridazine-3-carboxylic acid (MTHP) and their foliar and root dry biomass determined 30 days after application. The foliar applications were applied at approximately at Zadoks GS 15-20 (see FIG. 1) and assessed 30 days later at Zadoks GS 22-24 (also shown in FIG. 1)."}, "Corn": {"test_system": "Corn", "assay": "Foliar treatment dose series, root and shoot fresh weight, corn (Example 8)", "details": "35 days post treatment; for Root, FWt: dose 0: 2.3; for Shoot, FWt: dose 0: 6.1", "description": "Corn and wheat plants were given a foliar treatment […] (as described in Example 2) with 6-oxo-1,4,5,6 tetrahydropyridazine-3-carboxylic acid (THP) and then assessed for root and shoot biomass. Three treatment dosages were applied (Table 2). Plants were grown in a greenhouse with a diurnal cycle of 55-75F with ambient light. The plants were grown in a coarse river sand in 4″ pots with 0.5 g of Osmacote/pot. The mean root and shoot fresh weights were assessed at 35 days post treatment."}, "Wheat": {"test_system": "Wheat", "assay": "Seed treatment plus foliar spray, root and shoot biomass and emergence, wheat (Example 2)", "description": "Winter wheat variety AWC 13 seeds were treated with either 6-oxo-1,4,5,6-tetrahydropyridazine-3-carboxylic acid (THP) or 1-methyl 6-oxo-1,4,5,6 tetrahydropyridazine-3-carboxylic acid (MTHP) at an effective rate of 10g diluted in 2 L water plus 0.25% Nouryon wetter and applied to 1 ton of seed. These seed were planted in coarse river sand and grown in a greenhouse under ambient light at the greenhouse at 21° C. Plants were irrigated every other day with water containing 50% strength Hoaglands solution. Plants were assessed for emergence and biomass accumulation 30 days after planting. The plants from seeds treated with 6-oxo-1,4,5,6-tetrahydropyridizin-3-carboxylic acid or 1-methyl 6-oxo-1,4,5,6 tetrahydropyridazine-3-carboxylic acid had larger root biomasses (0.83, 0.85 g, dry weight/plant) compared with plants from untreated seeds (0.65 g dry weight/plant). Wheat, corn and pepper seeds were treated with 6-oxo-1,4,5,6-tetrahydropyridizine-3-carboxylic acid (THP) using the same methodology and growth conditions as described in example 1 and the resulting plants were also treated with a light foliar cover spray using an electric hand-held sprayer. (100 g in 200 L water plus 0.25% Nouryon wetter) of 6-oxo-1,4,5,6 tetrahydropyridazine-3-carboxylic acid (30 days post emergence (wheat at Zadoks GS 14 (see FIG. 1), maize at V2, Pepper at 3-4 leaf stage) and then assessed for root and shoot biomass 45 days later. At 75 days post planting the plants were assessed for root and shoot biomass as measured with dry weight."}, "[5]": {"details": "foliar dose 50 g/ha in 200 L/ha"}, "[6]": {"details": "foliar dose 100 g/ha in 200 L/ha"}, "[7]": {"details": "foliar dose 200 g/ha in 200 L/ha"}, "[8]": {"details": "seed treatment plus foliar spray 100 g in 200 L, 75 days post planting"}}, "note": "Marks after values point to notes of the source that are not given here.", "data": [{"smiles": "O=C1CCC(C(=O)O)=NN1", "note": "[THP, 6-oxo-1,4,5,6 tetrahydropyridazine-3-carboxylic acid]", "values": [{"measurement": "root biomass compared with untreated seeds or Take Off treated seeds", "setting": "Wheat seeds [1]", "result": "greater root biomass"}, {"measurement": "shoots compared with untreated seeds or Take Off treated seeds", "setting": "Wheat seeds [1]", "result": "longer bright green shoots"}, {"measurement": "Yield as Percent Increase over Untreated", "setting": "field grown wheat; Field 1", "result": "6.25* %"}, {"measurement": "Yield as Percent Increase over Untreated", "setting": "field grown wheat; Field 2", "result": "8.7* %"}, {"measurement": "Yield as Percent Increase over Untreated", "setting": "field grown wheat; Field 3", "result": "−0.3", "unit": "%"}, {"measurement": "Yield as Percent Increase over Untreated", "setting": "field grown wheat; Field 4", "result": "13.9* %"}, {"measurement": "Yield as Percent Increase over Untreated", "setting": "field grown wheat; Field 5", "result": 3.0, "unit": "%"}, {"measurement": "Yield as Percent Increase over Untreated", "setting": "field grown wheat; Field 6", "result": 3.3, "unit": "%"}, {"measurement": "Yield as Percent Increase over Untreated", "setting": "field grown wheat; Field 7", "result": 6.5, "unit": "%"}, {"measurement": "Yield as Percent Increase over Untreated", "setting": "field grown wheat; Field 8", "result": "9.8* %"}, {"measurement": "Yield as Percent Increase over Untreated", "setting": "field grown wheat; Field 9", "result": "8.1* %"}, {"measurement": "average yield response compared to the untreated plants across all sites", "setting": "field grown wheat; nine field plots", "result": 0.596, "unit": "tons per hectare"}, {"measurement": "root biomass", "setting": "[2]", "result": 0.85, "unit": "g dry weight/plant"}, {"measurement": "Shoot fresh weight", "setting": "Wheat seeds [3]; seed treatment 0.01 mM", "result": 44.7, "unit": "mg"}, {"measurement": "Roots fresh weight", "setting": "Wheat seeds [3]; seed treatment 0.01 mM", "result": 48.1, "unit": "mg"}, {"measurement": "Shoot fresh weight", "setting": "Wheat seeds [3]; seed treatment 0.1 mM", "result": 42.1, "unit": "mg"}, {"measurement": "Roots fresh weight", "setting": "Wheat seeds [3]; seed treatment 0.1 mM", "result": 43.8, "unit": "mg"}, {"measurement": "Dry Weight Shoot", "setting": "[4]; Con 0.47", "result": 1.01}, {"measurement": "Dry Weight Root", "setting": "[4]; Con 0.65", "result": 1.5}, {"measurement": "Root, FWt", "setting": "Corn; [5]", "result": 2.7, "unit": "g"}, {"measurement": "Shoot, FWt", "setting": "Corn; [5]", "result": 7.8, "unit": "g"}, {"measurement": "Root, FWt", "setting": "Corn; [6]", "result": 3.4, "unit": "g"}, {"measurement": "Shoot, FWt", "setting": "Corn; [6]", "result": 7.2, "unit": "g"}, {"measurement": "Root, FWt", "setting": "Corn; [7]", "result": 1.8, "unit": "g"}, {"measurement": "Shoot, FWt", "setting": "Corn; [7]", "result": 5.1, "unit": "g"}, {"measurement": "Root Dry Weight, % Difference vs Untreated", "setting": "Wheat; [8]", "result": 12, "unit": "%"}, {"measurement": "Shoot Dry Weight, % Difference vs Untreated", "setting": "Wheat; [8]", "result": 7, "unit": "%"}, {"measurement": "Emergence, % Difference vs Untreated", "setting": "Wheat; seed treatment, % Emergence at 10 days post planting", "result": 16, "unit": "%"}]}]}
